# Legend:
# Assay type in all cases: physicochemical
# [1] = Solubility assessments in four different media; details: 50 mg per vial; for Observation: 0.5 ml media at 37° C.
# Procedure: Solubility assessments of 5-MeO-DMT oxalate, hydrobromide fumarate and benzoate were performed in four different media: […]
# [2] = Dissolution rate in simulated nasal fluid (UV-fiber optic dissolution apparatus); details: 5 mg in 5 mL simulated nasal fluid, 37° C., 150 RPM
# Procedure: The dissolution rate was determined using a method comprising the use of a UV-fiber optic-based dissolution apparatus (one such suitable device is the Rainbow® Dynamic Dissolution Monitor by Pion Inc) and simulated nasal fluid. The simulated nasal fluid comprises 7.45 g/L NaCl, 1.29 g/L KCl, 0.32 g/L CaCl2×2H2O and deionised water.
# The dissolution apparatus was set up with a 2 mm probe to measure the dissolution rate. 5 mg of the salt form was transferred into 5 mL of simulated nasal fluid, heated to a constant temperature of 37° C. and stirred at 150 RPM using a crossed stirrer bar. Measurements were taken at 3 s intervals for 130 intervals followed by 60 measurements taken at 10 s intervals for a total time of 16 minutes and 30 s. Detection of dissolution is by UV absorbance.
# [3] = Polymorphism screen of benzoate salt (thermal cycling, evaporations, antisolvent additions, cooling), XRPD
# Procedure: To render the amorphous and thus remove seeds of the supplied pattern 1 the supplied material was lyophilised in an attempt to render it amorphous. To 2.396 g of the supplied benzoate salt lot 800674000 dioxane (55 ml) and water (5 ml) was added. The mixture was agitated gently and warmed to aid dissolution.
# Twenty five of the lyophilised samples were treated with solvent and thermally cycled between ambient and 40° C. with four hours spent under each condition. After three days and solids were isolated by centrifuge filtration and analysed by XRPD.
# Twelve samples of the lyophilised material were treated with a minimal volume (ca 0.5 ml) of warm solvent, syringe filtered through a 0.22 micrometre filter and added to a clean HPLC vial and allowed to evaporate at RT. The solvents used and XRPD results following evaporation are detailed in the Table below:
# For antisolvent additions thirteen samples of the lyophilised material were dissolved in a small amount of hot solvent (^~0.5 ml). […] A large excess of antisolvent was then added, the vials sealed. After storage at RT overnight, and samples where no solid had been produced were first cooled to 4° C. for ^~24 hrs, and again if no solid was produced, they were cooled to −18° C. Any solids were isolated by centrifuge filtration and analysed by XRPD.
# For the cooling experiments twelve samples of the lyophilised material were dissolved in a small amount of hot solvent (^~0.5 ml) and syringe filtered through a 0.22 μm filter into a clean HPLC vial. Samples were allowed to cool to RT, and if no solid was produced to 4° C. and then to −18° C. Solids were isolated by centrifuge filtration and analysed by XRPD.
compound,measurement,setting,value
"COc1ccc2[nH]cc(CCN(C)C)c2c1.O=C(O)c1ccccc1 [benzoate salt, 5-MeO-DMT benzoate]",pH after addition of 0.5 ml media at 37° C.,[1]; SNF,6.77
same,Observation,[1]; SNF,Clear solution
same,pH after addition of 0.5 ml media at 37° C.,[1]; pH 1.2 buffer,5.28
same,Observation,[1]; pH 1.2 buffer,Clear solution
same,pH after addition of 0.5 ml media at 37° C.,[1]; pH 4.5 buffer,5.22
same,Observation,[1]; pH 4.5 buffer,Clear solution
same,pH after addition of 0.5 ml media at 37° C.,[1]; pH 6.8 buffer,6.82
same,Observation,[1]; pH 6.8 buffer,Clear solution
same,dissolution rate,[2],almost instantaneous
same,XRPD Results,"[3]; antisolvent addition, solvent DMF, anti solvent PhMe, Cooled −18 C., DJP2202-012-07",No solid
same,XRPD Results,"[3]; antisolvent addition, solvent EtOH, anti solvent Heptane, Some solid at RT, DJP2202-012-04",Pattern 1
same,XRPD Results,"[3]; antisolvent addition, solvent EtOH, anti solvent TBME, Cooled −18 C., DJP2202-012-03",No solid
same,XRPD Results,"[3]; antisolvent addition, solvent IPAC, anti solvent TBME, Cooled −18 C., DJP2202-012-08",No solid
same,XRPD Results,"[3]; antisolvent addition, solvent MEK, anti solvent Heptane, Some solid at RT, DJP2202-012-10",Pattern 2
same,XRPD Results,"[3]; antisolvent addition, solvent MEK, anti solvent TBME, Cooled −18 C., DJP2202-012-09",No solid
same,XRPD Results,"[3]; antisolvent addition, solvent MeCN, anti solvent PhMe, Some solid at RT, DJP2202-012-12",Pattern 4
same,XRPD Results,"[3]; antisolvent addition, solvent MeCN, anti solvent TBME, Cooled −18 C., DJP2202-012-11",No solid
same,XRPD Results,"[3]; antisolvent addition, solvent MeOH, anti solvent TBME, Cooled −18 C., DJP2202-012-02",No solid
same,XRPD Results,"[3]; antisolvent addition, solvent MeOH/water Aw 0.2, anti solvent MeOH, Cooled −18 C., DJP2202-012-01",No solid
same,XRPD Results,"[3]; antisolvent addition, solvent THF, anti solvent TBME, Cooled −18 C., DJP2202-012-05",No solid
same,XRPD Results,"[3]; antisolvent addition, solvent dioxane, anti solvent TBME, Cooled −18 C., DJP2202-012-06",No solid
same,XRPD Results,"[3]; cooling experiment, EtOH, Solid at RT, DJP2202-013-05",Pattern 4
same,XRPD Results,"[3]; cooling experiment, IPA, Solid at RT, DJP2202-013-06",Pattern 4
same,XRPD Results,"[3]; cooling experiment, IPAC, Solid at RT, DJP2202-013-10",Pattern 4
same,XRPD Results,"[3]; cooling experiment, MEK, Solid at RT, DJP2202-013-11",Pattern 2
same,XRPD Results,"[3]; cooling experiment, MeCN, Solid at RT, DJP2202-013-12",Pattern 4
same,XRPD Results,"[3]; cooling experiment, MeOH/water Aw 0.2, Cooled −18 C., DJP2202-013-01",Pattern 4
same,XRPD Results,"[3]; cooling experiment, MeOH/water Aw 0.6, Cooled −18 C., DJP2202-013-02",no solids
same,XRPD Results,"[3]; cooling experiment, MeOH, Cooled −18 C., DJP2202-013-04",no solids
same,XRPD Results,"[3]; cooling experiment, THF, Solid at RT, DJP2202-013-07",Pattern 4
same,XRPD Results,"[3]; cooling experiment, Water, Cooled −18 C., DJP2202-013-03",Pattern 4
same,XRPD Results,"[3]; cooling experiment, chlorobenzene, Solid at RT, DJP2202-013-09",mix #4 #2
same,XRPD Results,"[3]; cooling experiment, dioxane, Solid at RT, DJP2202-013-08",Pattern 3
same,XRPD Result,"[3]; evaporation at RT of lyophilised material from 1-PrOH, DJP2202-010-02",Oil
same,XRPD Result,"[3]; evaporation at RT of lyophilised material from EtOH, DJP2202-010-05",Oil
same,XRPD Result,"[3]; evaporation at RT of lyophilised material from IPA, DJP2202-010-06",Pattern 4
same,XRPD Result,"[3]; evaporation at RT of lyophilised material from IPAC, DJP2202-010-10",Pattern 2
same,XRPD Result,"[3]; evaporation at RT of lyophilised material from MEK, DJP2202-010-11",Pattern 4
same,XRPD Result,"[3]; evaporation at RT of lyophilised material from MIBK, DJP2202-010-04",Oil
same,XRPD Result,"[3]; evaporation at RT of lyophilised material from MeCN, DJP2202-010-12",Pattern 4
same,XRPD Result,"[3]; evaporation at RT of lyophilised material from THF, DJP2202-010-07",Pattern 4
same,XRPD Result,"[3]; evaporation at RT of lyophilised material from chlorobenzene, DJP2202-010-09",Pattern 4
same,XRPD Result,"[3]; evaporation at RT of lyophilised material from dioxane, DJP2202-010-08",Pattern 4
same,XRPD Result,"[3]; thermal cycle ambient/40° C., 3 days, 1,4-Dioxane 200 μl, isolated after thermal cycle, DJP2202-006-01",Pattern 3
same,XRPD Result,"[3]; thermal cycle ambient/40° C., 3 days, 1-Propanol 200 μl, isolated after thermal cycle, DJP2202-006-02",Pattern 4
same,XRPD Result,"[3]; thermal cycle ambient/40° C., 3 days, 2-Butanol 200 μl, isolated after thermal cycle, DJP2202-006-03",Pattern 4
same,XRPD Result,"[3]; thermal cycle ambient/40° C., 3 days, 2-Me-1-PrOH 200 μl, isolated after thermal cycle, DJP2202-006-21",Pattern 4
same,XRPD Result,"[3]; thermal cycle ambient/40° C., 3 days, 2-Methyltetrahydrofuran 200 μl, isolated after thermal cycle, DJP2202-006-05",Pattern 4
same,XRPD Result,"[3]; thermal cycle ambient/40° C., 3 days, 2-Propanol 200 μl, isolated after thermal cycle, DJP2202-006-06",Pattern 4
same,XRPD Result,"[3]; thermal cycle ambient/40° C., 3 days, Acetone 200 μl, isolated after thermal cycle, DJP2202-006-07",Pattern 4
same,XRPD Result,"[3]; thermal cycle ambient/40° C., 3 days, Acetonitrile 200 μl, isolated after thermal cycle, DJP2202-006-08",Pattern 4
same,XRPD Result,"[3]; thermal cycle ambient/40° C., 3 days, Anisole 200 μl, isolated after thermal cycle, DJP2202-006-09",Pattern 4
same,XRPD Result,"[3]; thermal cycle ambient/40° C., 3 days, Chlorobenzene 200 μl, isolated after thermal cycle, DJP2202-006-10",Pattern 4 +
same,XRPD Result,"[3]; thermal cycle ambient/40° C., 3 days, Ethanol 150 μl, isolated after thermal cycle, DJP2202-006-11",Pattern 4
same,XRPD Result,"[3]; thermal cycle ambient/40° C., 3 days, Ethyl acetate 200 μl, isolated after thermal cycle, DJP2202-006-12",Pattern 4
same,XRPD Result,"[3]; thermal cycle ambient/40° C., 3 days, Formamide 150 μl, isolated after thermal cycle, DJP2202-006-17",Pattern 4
same,XRPD Result,"[3]; thermal cycle ambient/40° C., 3 days, Isopropyl acetate 200 μl, isolated after thermal cycle, DJP2202-006-13",Pattern 4
same,XRPD Result,"[3]; thermal cycle ambient/40° C., 3 days, MeOH/water 360/640 Calc Aw 0.821, 200 μl, clear solution, evaporated to solid, DJP2202-006-25",Pattern 1
same,XRPD Result,"[3]; thermal cycle ambient/40° C., 3 days, MeOH/water 693/307 Calc Aw 0.599, 200 μl, clear solution, evaporated to solid, DJP2202-006-24",Pattern 1
same,XRPD Result,"[3]; thermal cycle ambient/40° C., 3 days, Methanol 200 μl, clear solution, evaporated to solid, DJP2202-006-14",Pattern 1
same,XRPD Result,"[3]; thermal cycle ambient/40° C., 3 days, Methylethyl ketone 200 μl, isolated after thermal cycle, DJP2202-006-16",Pattern 4
same,XRPD Result,"[3]; thermal cycle ambient/40° C., 3 days, Propyl acetate 200 μl, isolated after thermal cycle, DJP2202-006-15",Pattern 4
same,XRPD Result,"[3]; thermal cycle ambient/40° C., 3 days, Tetrahydrofuran 200 μl, isolated after thermal cycle, DJP2202-006-22",Pattern 4
same,XRPD Result,"[3]; thermal cycle ambient/40° C., 3 days, iso-Propyl acetate 200 μl, isolated after thermal cycle, DJP2202-006-20",Pattern 4

# Source: patent US20260209175A1, “PHARMACEUTICALLY ACCEPTABLE 5-METHOXY-N,N-DIMETHYL[…] AND COMPOSITIONS THEREOF” (priority 2022, published 2026)
